The text below walks through data of article PMC8305664, “Knockdown of a β-Adrenergic-Like Octopamine Receptor Affects Locomotion and Reproduction of Tribolium castaneum” (International Journal of Molecular Sciences, 2021).

The assay addresses T1, TcOctβ2R (β-adrenergic-like octopamine receptor) (Tribolium castaneum, UniProt N1NSX1).
T1 construct: full ORF (411 amino acids), pcDNA3.1(+), transiently expressed in HEK 293 cells
T1 sequence (N1NSX1 1-411): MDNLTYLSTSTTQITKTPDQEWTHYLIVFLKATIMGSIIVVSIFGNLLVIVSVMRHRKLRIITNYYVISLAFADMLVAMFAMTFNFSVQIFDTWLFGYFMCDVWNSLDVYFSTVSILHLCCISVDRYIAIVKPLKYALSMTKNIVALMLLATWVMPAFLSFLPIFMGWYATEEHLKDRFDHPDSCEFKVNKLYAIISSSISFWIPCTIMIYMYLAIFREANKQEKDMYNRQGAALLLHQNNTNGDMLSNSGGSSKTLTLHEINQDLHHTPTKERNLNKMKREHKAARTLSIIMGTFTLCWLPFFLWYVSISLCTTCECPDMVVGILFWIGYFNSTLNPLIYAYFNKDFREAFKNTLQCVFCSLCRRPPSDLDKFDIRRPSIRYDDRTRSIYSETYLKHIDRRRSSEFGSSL
In words: GloSensor cAMP assay in HEK […] cells expressing the receptor (agonist). It is filed as cell-based.
As to `c1ccc2c(CC3=NCCN3)cccc2c1` [naphazoline], the EC50 is 7.1 nM. `NCCc1ccc(O)cc1` [tyramine]: the midpoint of the response, the EC50, lay at 200 nM. For `NCC(O)c1ccc(O)cc1` (stereo not drawn) [octopamine], a half-maximal effect (EC50) was put at 28 nM.
